According to the supplement of paper PMC8617591:

Experiments:
[1] = tested on: Mycobacterium tuberculosis Erdman (autoluminescent); experiment: GRinf, maximum normalised growth rate inhibition (three-drug combination) (unitless (-1 to 1)); higher = less effect (negative = killing)
Method: (§1)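 DiaMOND equipotent three-drug combination dose responses (10 doses, 1.5- or 2-fold spacing, centred on IC90) against autoluminescent M. tuberculosis Erdman in 8 in vitro models. Read-out is OD600, or luminescence for the intracellular and dormancy models, normalised to untreated wells. Hill-fit Einf, AUC25 and GRinf are potency metrics; FIC50 and FIC90 are total Loewe fractional inhibitory concentrations as log2 (negative = synergy).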

[2] = tested on: Mycobacterium tuberculosis Erdman (autoluminescent); experiment: total FIC90 (Loewe) at 90% inhibition, three-drug combination (log2); higher = more antagonistic
Method: as §1

[3] = tested on: Mycobacterium tuberculosis Erdman (autoluminescent); experiment: total FIC50 (Loewe) at 50% inhibition, three-drug combination (log2); higher = more antagonistic
Method: as §1

[4] = tested on: Mycobacterium tuberculosis Erdman (autoluminescent); experiment: AUC25, normalised area under dose response up to IC25 (three-drug combination) (fraction (0-1)); higher = more potent at low dose
Method: as §1

[5] = tested on: Mycobacterium tuberculosis Erdman (autoluminescent); experiment: Einf, fitted maximum growth inhibition of three-drug combination (fraction); higher = stronger maximal inhibition
Method: as §1

[6] = in vitro model: acidic pH 5.7, time point: constant (~7 days, model-specific)
[7] = in vitro model: acidic pH 5.7, time point: terminal (~4-5 doublings, model-specific)
[8] = in vitro model: butyrate, time point: constant (~7 days, model-specific)
[9] = in vitro model: butyrate, time point: terminal (~4-5 doublings, model-specific)
[10] = in vitro model: cholesterol 0.05 mM, time point: constant (~7 days, model-specific)
[11] = in vitro model: cholesterol 0.05 mM, time point: terminal (~4-5 doublings, model-specific)
[12] = in vitro model: cholesterol-high 0.2 mM, time point: constant (~7 days, model-specific)
[13] = in vitro model: cholesterol-high 0.2 mM, time point: terminal (~4-5 doublings, model-specific)
[14] = in vitro model: dormancy (butyrate + nitrate, low O2), time point: constant (~7 days, model-specific)
[15] = in vitro model: dormancy (butyrate + nitrate, low O2), time point: terminal (~4-5 doublings, model-specific)
[16] = in vitro model: intracellular J774, time point: constant = terminal
[17] = in vitro model: standard 7H9 glycerol, time point: constant = terminal
[18] = in vitro model: valerate, time point: constant (~7 days, model-specific)
[19] = in vitro model: valerate, time point: terminal (~4-5 doublings, model-specific)

Compound: CC(=O)NC[C@H]1CN(c2ccc(N3CCOCC3)c(F)c2)C(=O)O1 [linezolid] + COc1c(N2C[C@@H]3CCCN[C@@H]3C2)c(F)cc2c(=O)c(C(=O)O)cn(C3CC3)c12 [moxifloxacin] + CO[C@H]1/C=C/O[C@@]2(C)Oc3c(C)c(O)c4c(O)c(c(/C=N/N5CCN(C)CC5)c(O)c4c3C2=O)NC(=O)/C(C)=C\C=C\[C@H](C)[C@H](O)[C@@H](C)[C@@H](O)[C@@H](C)[C@H](OC(C)=O)[C@@H]1C [rifampicin]
- GRinf [1, 6]: -0.0255
- GRinf [1, 7]: -0.147
- GRinf [1, 8]: 0.177
- GRinf [1, 9]: 0.128
- GRinf [1, 10]: -0.119
- GRinf [1, 11]: -0.285
- GRinf [1, 12]: -0.343
- GRinf [1, 13]: -0.901
- GRinf [1, 14]: 0.239
- GRinf [1, 15]: -0.0219
- GRinf [1, 16]: -0.103
- GRinf [1, 17]: 0.261
- GRinf [1, 18]: 0.0279
- GRinf [1, 19]: 0.0628
- total FIC90 [2, 7]: 0.503
- total FIC90 [2, 9]: 0.0683
- total FIC90 [2, 11]: -0.628
- total FIC90 [2, 12]: -0.284
- total FIC90 [2, 13]: 0.931
- total FIC90 [2, 14]: 0.815
- total FIC90 [2, 15]: 0.88
- total FIC90 [2, 16]: 0.656
- total FIC90 [2, 19]: 0.105
- total FIC50 [3, 6]: 0.498
- total FIC50 [3, 7]: 0.628
- total FIC50 [3, 8]: 0.137
- total FIC50 [3, 9]: 0.112
- total FIC50 [3, 10]: 0.272
- total FIC50 [3, 11]: 4.84
- total FIC50 [3, 12]: 0.731
- total FIC50 [3, 13]: 0.947
- total FIC50 [3, 14]: 1.14
- total FIC50 [3, 15]: 0.897
- total FIC50 [3, 17]: 0.691
- total FIC50 [3, 18]: 0.393
- total FIC50 [3, 19]: 0.609
- AUC25 [4, 6]: 0.0527
- AUC25 [4, 7]: 0.0717
- AUC25 [4, 8]: 0.0848
- AUC25 [4, 9]: 0.0684
- AUC25 [4, 10]: 0.156
- AUC25 [4, 11]: 0.124
- AUC25 [4, 12]: 0.0752
- AUC25 [4, 13]: 0.0984
- AUC25 [4, 14]: 0.0613
- AUC25 [4, 15]: 0.0476
- AUC25 [4, 17]: 0.0568
- AUC25 [4, 18]: 0.0669
- AUC25 [4, 19]: 0.0324
- Einf [5, 6]: 0.811
- Einf [5, 7]: 0.984
- Einf [5, 8]: 0.857
- Einf [5, 9]: 0.929
- Einf [5, 10]: 0.709
- Einf [5, 11]: 0.916
- Einf [5, 12]: 0.889
- Einf [5, 13]: 1
- Einf [5, 14]: 0.873
- Einf [5, 15]: 0.971
- Einf [5, 16]: 0.919
- Einf [5, 17]: 0.839
- Einf [5, 18]: 0.803
- Einf [5, 19]: 0.928

Compound: CC(=O)NC[C@H]1CN(c2ccc(N3CCOCC3)c(F)c2)C(=O)O1 [linezolid] + COc1c(N2C[C@@H]3CCCN[C@@H]3C2)c(F)cc2c(=O)c(C(=O)O)cn(C3CC3)c12 [moxifloxacin] + NC(=O)c1cnccn1 [pyrazinamide]
- GRinf [1, 6]: -0.345
- GRinf [1, 7]: -0.38
- GRinf [1, 8]: 0.0582
- GRinf [1, 9]: 0.0307
- GRinf [1, 10]: -0.234
- GRinf [1, 11]: -0.426
- GRinf [1, 12]: -0.819
- GRinf [1, 13]: -1
- GRinf [1, 14]: 0.269
- GRinf [1, 15]: -0.0525
- GRinf [1, 16]: -0.17
- GRinf [1, 17]: -0.271
- GRinf [1, 18]: 0.12
- GRinf [1, 19]: 0.0594
- total FIC90 [2, 7]: -0.8
- total FIC90 [2, 8]: 2.34
- total FIC90 [2, 9]: 0.745
- total FIC90 [2, 13]: 0.717
- total FIC90 [2, 14]: 0.461
- total FIC90 [2, 15]: 0.354
- total FIC90 [2, 16]: 0.559
- total FIC90 [2, 19]: 0.56
- total FIC50 [3, 6]: -0.252
- total FIC50 [3, 7]: 1.52
- total FIC50 [3, 8]: 0.00706
- total FIC50 [3, 9]: 0.0931
- total FIC50 [3, 11]: 0.356
- total FIC50 [3, 12]: 0.486
- total FIC50 [3, 13]: 0.334
- total FIC50 [3, 14]: 0.651
- total FIC50 [3, 15]: 0.786
- total FIC50 [3, 18]: -0.0785
- total FIC50 [3, 19]: 0.266
- AUC25 [4, 6]: 0.0593
- AUC25 [4, 7]: 0.0649
- AUC25 [4, 8]: 0.108
- AUC25 [4, 9]: 0.0904
- AUC25 [4, 10]: 0.145
- AUC25 [4, 11]: 0.147
- AUC25 [4, 12]: 0.106
- AUC25 [4, 13]: 0.115
- AUC25 [4, 14]: 0.0721
- AUC25 [4, 15]: 0.0321
- AUC25 [4, 17]: 0.0843
- AUC25 [4, 18]: 0.0976
- AUC25 [4, 19]: 0.0603
- Einf [5, 6]: 0.734
- Einf [5, 7]: 0.955
- Einf [5, 8]: 0.891
- Einf [5, 9]: 0.952
- Einf [5, 10]: 0.704
- Einf [5, 11]: 0.932
- Einf [5, 12]: 0.923
- Einf [5, 13]: 1
- Einf [5, 14]: 0.855
- Einf [5, 15]: 0.973
- Einf [5, 16]: 0.939
- Einf [5, 17]: 0.962
- Einf [5, 18]: 0.87
- Einf [5, 19]: 0.921

Compound: CC(=O)NC[C@H]1CN(c2ccc(N3CCOCC3)c(F)c2)C(=O)O1 [linezolid] + COc1c(N2C[C@@H]3CCCN[C@@H]3C2)c(F)cc2c(=O)c(C(=O)O)cn(C3CC3)c12 [moxifloxacin] + O=[N+]([O-])c1cn2c(n1)OC[C@@H](OCc1ccc(OC(F)(F)F)cc1)C2 [pretomanid]
- GRinf [1, 6]: -0.748
- GRinf [1, 7]: -0.404
- GRinf [1, 8]: 0.0148
- GRinf [1, 9]: 0.0166
- GRinf [1, 10]: -0.183
- GRinf [1, 11]: -0.206
- GRinf [1, 12]: -0.45
- GRinf [1, 13]: -0.722
- GRinf [1, 14]: 0.219
- GRinf [1, 15]: -0.165
- GRinf [1, 16]: -0.659
- GRinf [1, 17]: -0.151
- GRinf [1, 18]: -0.229
- GRinf [1, 19]: -0.0505
- total FIC90 [2, 7]: 0.694
- total FIC90 [2, 8]: 0.801
- total FIC90 [2, 9]: 0.736
- total FIC90 [2, 11]: 0.307
- total FIC90 [2, 12]: 1.91
- total FIC90 [2, 13]: 0.839
- total FIC90 [2, 14]: 0.456
- total FIC90 [2, 15]: 0.983
- total FIC90 [2, 16]: 1.38
- total FIC90 [2, 17]: 0.766
- total FIC90 [2, 19]: 0.791
- total FIC50 [3, 6]: 0.776
- total FIC50 [3, 7]: 1.08
- total FIC50 [3, 8]: 0.594
- total FIC50 [3, 9]: 0.499
- total FIC50 [3, 10]: 0.0017
- total FIC50 [3, 11]: 0.534
- total FIC50 [3, 12]: 0.187
- total FIC50 [3, 13]: 0.117
- total FIC50 [3, 14]: 0.988
- total FIC50 [3, 15]: 1.01
- total FIC50 [3, 17]: 0.466
- total FIC50 [3, 18]: -0.643
- total FIC50 [3, 19]: -0.495
- AUC25 [4, 6]: 0.113
- AUC25 [4, 7]: 0.0579
- AUC25 [4, 8]: 0.0971
- AUC25 [4, 9]: 0.0695
- AUC25 [4, 10]: 0.14
- AUC25 [4, 11]: 0.134
- AUC25 [4, 12]: 0.121
- AUC25 [4, 13]: 0.117
- AUC25 [4, 14]: 0.0437
- AUC25 [4, 15]: 0.0489
- AUC25 [4, 17]: 0.0706
- AUC25 [4, 18]: 0.138
- AUC25 [4, 19]: 0.0994
- Einf [5, 6]: 0.883
- Einf [5, 7]: 0.945
- Einf [5, 8]: 0.916
- Einf [5, 9]: 0.953
- Einf [5, 10]: 0.692
- Einf [5, 11]: 0.908
- Einf [5, 12]: 0.923
- Einf [5, 13]: 0.989
- Einf [5, 14]: 0.879
- Einf [5, 15]: 0.979
- Einf [5, 16]: 0.954
- Einf [5, 17]: 0.962
- Einf [5, 18]: 0.861
- Einf [5, 19]: 0.918
